In US7555415B2, “Methods for the design of estrogen receptor ligands” (Wyeth, priority 2005, dated 2009):

How the values were obtained:
[1] = test system: Adjuvant Induced Arthritis (AIA); assay: Adjuvant Induced Arthritis: daily arthritis severity / paw swelling score; assay type: in vivo, Lewis rats
[2] = test system: Adjuvant Induced Arthritis (AIA); assay: Adjuvant-induced arthritis: histological scoring of synovitis in tarsal joints; assay type: in vivo, Lewis rats; settings: for Fibroplasia (0-3) / Inflammatory Cells (0-3) / Pannus (0-2) / Synovial Structure (0-3) / Total Synovitis Score (0-10): means ± SD
Experimental: Rats were injected with Complete Freund's Adjuvant (CFA), and synovitis in the tarsal joints was monitored.
(§1) Forty-two male, 8-10 weeks old, Lewis rats were housed according to standard facility operating procedures. They received a standard regimen of food and water ad libitum. Each animal was identified by a cage card indicating the project group and animal number. Each rat number was marked by indelible ink marker on the tail. Freund's Adjuvant-Complete (Sigma Immuno Chemicals, St. Louis, Mo.) was used to induce arthritis. Each mL contained 1 mg Mycobacterium tuberculosis heat killed and dried, 0.85 mL mineral oil and 0.15 mL mannide monooleate (Lot No. 084H8800).
(§2) The rats were injected intradermally with 0.1 mL of Freund's Adjuvant-Complete at the base of the tail. The animals were randomized to […], each group containing six rats. The groups received vehicle (2% Tween 80, 0.5% methylcellulose), or the Compound 2 compound at 1.0 mg/kg, 0.3 mg/kg, or 0.1 mg/kg orally each day. The rats began treatment on Day 8 after adjuvant injection.
(§3) At the end of the study the rats were euthanized with CO2, hindlimbs were removed at necropsy and fixed in 10% buffered formalin, and the tarsal joints were decalcified and embedded in paraffin. Histologic sections were stained with Hemotoxylin and Eosin or Saffranin O-Fast Green stain.
(§4) Slides were coded so that the examiner was blind to the treatment groups. Synovial tissue from tarsal joints were evaluated based on synovial hyperplasia, inflammatory cell infiltration, and pannus formation (see Table 4). Articular cartilage and bone was evaluated using Mankin's histological grading system. Biochemical and metabolic abnormalities in articular cartilage was assessed as from osteoarthritic human hip (see J. Bone Joint Surg (AM) 53A:152-153) (Table 5).

[3] = test system: Adjuvant Induced Arthritis (AIA); assay: Adjuvant-induced arthritis: histological scoring of cartilage changes (Mankin score) in tarsal joints; assay type: in vivo, Lewis rats; settings: for Cartilage Cells (0-3) / Cartilage Structure (0-6) / Saffranin-O/Fast Green Staining (0-4) / Total Mankin Score (0-14): means ± SD
Experimental: as §1, §2, §3, §4

[4] = test system: Collagen Induced Arthritis; assay: Collagen induced arthritis model (anti-type II collagen mAbs plus LPS): hind paw edema; assay type: in vivo; settings: BALB/c mice, 2.5 mg/kg orally once daily, over the course of the experiment
Experimental: Compound 2 was evaluated in BALB/c mice, 6-8 weeks of age, in which arthritis was induced by monoclonal antibodies raised against type II collagen, plus lipopolysaccharide (LPS). The animals were administered intravenously with a combination of four different mAbs totaling 4 mg/mouse on day 0, and followed by intravenous administration of […] of LPS 72 hours later (day 3). From day 3, one hour after LPS application, tested compounds were given orally once daily for 15 days. For each animal, an increase in volume of both hind paws was measured using a plethysmometer with water cell (12 mm diameter) on days 0, 5, 7, 10, 14 and 17. Percent inhibition of increase in volume was calculated. Reduction of edema in the hind paws by 30% or more was considered significant.

[5] = target: the molecule itself; assay: X-ray crystallography, co-crystals with Compound 1 or Compound 2, two LBD molecules per asymmetric unit
[6] = Compound 2, 0.1 mg/kg orally for 2 weeks from day 8 after CFA
[7] = Compound 2, 0.3 mg/kg orally for 2 weeks from day 8 after CFA
[8] = Compound 2, 1 mg/kg orally for 2 weeks from day 8 after CFA
[9] = all concentrations tested (down to 0.1 mg/kg)

C[C@@H]1c2cc(F)ccc2-c2ccccc2N1S(=O)(=O)c1ccc(O)cc1 [Compound 2, 4-[(8-Fluoro-6-methylphenanthridin-5(6H)-yl)sulfonyl]phenol]
Paw swelling score (maximal score per day 12) ([1]; 0.3 mg/kg (first column so headed, c3) orally each day from Day 8, Day 8): 11.5
Paw swelling score (maximal score per day 12) ([1]; 0.3 mg/kg (first column so headed, c3) orally each day from Day 8, Day 9): 9.8
Paw swelling score (maximal score per day 12) ([1]; 0.3 mg/kg (first column so headed, c3) orally each day from Day 8, Day 10): 7.3
Paw swelling score (maximal score per day 12) ([1]; 0.3 mg/kg (first column so headed, c3) orally each day from Day 8, Day 11): 7
Paw swelling score (maximal score per day 12) ([1]; 0.3 mg/kg (first column so headed, c3) orally each day from Day 8, Day 12): 6.7
Paw swelling score (maximal score per day 12) ([1]; 0.3 mg/kg (first column so headed, c3) orally each day from Day 8, Day 13): 3.7
Paw swelling score (maximal score per day 12) ([1]; 0.3 mg/kg (first column so headed, c3) orally each day from Day 8, Day 14): 3
Paw swelling score (maximal score per day 12) ([1]; 0.3 mg/kg (first column so headed, c3) orally each day from Day 8, Day 15): 3.7
Paw swelling score (maximal score per day 12) ([1]; 0.3 mg/kg (first column so headed, c3) orally each day from Day 8, Day 16): 2.3
Paw swelling score (maximal score per day 12) ([1]; 0.3 mg/kg (first column so headed, c3) orally each day from Day 8, Day 17): 2.3
Paw swelling score (maximal score per day 12) ([1]; 0.3 mg/kg (first column so headed, c3) orally each day from Day 8, Day 18): 2.3
Paw swelling score (maximal score per day 12) ([1]; 0.3 mg/kg (first column so headed, c3) orally each day from Day 8, Day 19): 2
Paw swelling score (maximal score per day 12) ([1]; 0.3 mg/kg (first column so headed, c3) orally each day from Day 8, Day 20): 2
Paw swelling score (maximal score per day 12) ([1]; 0.3 mg/kg (first column so headed, c3) orally each day from Day 8, Day 21): 1.7
Paw swelling score (maximal score per day 12) ([1]; 0.3 mg/kg (first column so headed, c3) orally each day from Day 8, Day 22): 1.7
Paw swelling score (maximal score per day 12) ([1]; 0.3 mg/kg (first column so headed, c3) orally each day from Day 8, Day 23): 1
Paw swelling score (maximal score per day 12) ([1]; 0.3 mg/kg (first column so headed, c3) orally each day from Day 8, Day 24): 1.3
Paw swelling score (maximal score per day 12) ([1]; 0.3 mg/kg (second column so headed, c4) orally each day from Day 8, Day 8): 11.3
Paw swelling score (maximal score per day 12) ([1]; 0.3 mg/kg (second column so headed, c4) orally each day from Day 8, Day 9): 10.7
Paw swelling score (maximal score per day 12) ([1]; 0.3 mg/kg (second column so headed, c4) orally each day from Day 8, Day 10): 9.3
Paw swelling score (maximal score per day 12) ([1]; 0.3 mg/kg (second column so headed, c4) orally each day from Day 8, Day 11): 9.7
Paw swelling score (maximal score per day 12) ([1]; 0.3 mg/kg (second column so headed, c4) orally each day from Day 8, Day 12): 10
Paw swelling score (maximal score per day 12) ([1]; 0.3 mg/kg (second column so headed, c4) orally each day from Day 8, Day 13): 4.2
Paw swelling score (maximal score per day 12) ([1]; 0.3 mg/kg (second column so headed, c4) orally each day from Day 8, Day 14): 3.5
Paw swelling score (maximal score per day 12) ([1]; 0.3 mg/kg (second column so headed, c4) orally each day from Day 8, Day 15): 3.5
Paw swelling score (maximal score per day 12) ([1]; 0.3 mg/kg (second column so headed, c4) orally each day from Day 8, Day 16): 3.3
Paw swelling score (maximal score per day 12) ([1]; 0.3 mg/kg (second column so headed, c4) orally each day from Day 8, Day 17): 3.3
Paw swelling score (maximal score per day 12) ([1]; 0.3 mg/kg (second column so headed, c4) orally each day from Day 8, Day 18): 3.3
Paw swelling score (maximal score per day 12) ([1]; 0.3 mg/kg (second column so headed, c4) orally each day from Day 8, Day 19): 3
Paw swelling score (maximal score per day 12) ([1]; 0.3 mg/kg (second column so headed, c4) orally each day from Day 8, Day 20): 2.8
Paw swelling score (maximal score per day 12) ([1]; 0.3 mg/kg (second column so headed, c4) orally each day from Day 8, Day 21): 2.5
Paw swelling score (maximal score per day 12) ([1]; 0.3 mg/kg (second column so headed, c4) orally each day from Day 8, Day 22): 2.5
Paw swelling score (maximal score per day 12) ([1]; 0.3 mg/kg (second column so headed, c4) orally each day from Day 8, Day 23): 1.2
Paw swelling score (maximal score per day 12) ([1]; 0.3 mg/kg (second column so headed, c4) orally each day from Day 8, Day 24): 1.3
Paw swelling score (maximal score per day 12) ([1]; 1 mg/kg orally each day from Day 8, Day 8): 11.3
Paw swelling score (maximal score per day 12) ([1]; 1 mg/kg orally each day from Day 8, Day 9): 8.8
Paw swelling score (maximal score per day 12) ([1]; 1 mg/kg orally each day from Day 8, Day 10): 7
Paw swelling score (maximal score per day 12) ([1]; 1 mg/kg orally each day from Day 8, Day 11): 6
Paw swelling score (maximal score per day 12) ([1]; 1 mg/kg orally each day from Day 8, Day 12): 5
Paw swelling score (maximal score per day 12) ([1]; 1 mg/kg orally each day from Day 8, Day 13): 1.7
Paw swelling score (maximal score per day 12) ([1]; 1 mg/kg orally each day from Day 8, Day 14): 1.3
Paw swelling score (maximal score per day 12) ([1]; 1 mg/kg orally each day from Day 8, Day 15): 1.3
Paw swelling score (maximal score per day 12) ([1]; 1 mg/kg orally each day from Day 8, Day 16): 1.2
Paw swelling score (maximal score per day 12) ([1]; 1 mg/kg orally each day from Day 8, Day 17): 1.2
Paw swelling score (maximal score per day 12) ([1]; 1 mg/kg orally each day from Day 8, Day 18): 1.2
Paw swelling score (maximal score per day 12) ([1]; 1 mg/kg orally each day from Day 8, Day 19): 1.2
Paw swelling score (maximal score per day 12) ([1]; 1 mg/kg orally each day from Day 8, Day 20): 1.2
Paw swelling score (maximal score per day 12) ([1]; 1 mg/kg orally each day from Day 8, Day 21): 1.2
Paw swelling score (maximal score per day 12) ([1]; 1 mg/kg orally each day from Day 8, Day 22): 1.2
Paw swelling score (maximal score per day 12) ([1]; 1 mg/kg orally each day from Day 8, Day 23): 1
Paw swelling score (maximal score per day 12) ([1]; 1 mg/kg orally each day from Day 8, Day 24): 0.8
Paw swelling and redness (joint scores) ([1]; following treatment, there appeared to be a dose response): Decreases
Fibroplasia (0-3) [2, 6]: 1.75 ± 0.42
Inflammatory Cells (0-3) [2, 6]: 1.83 ± 0.52
Pannus (0-2) [2, 6]: 1.50 ± 0.84
Synovial Structure (0-3) [2, 6]: 2.33 ± 0.75
Total Synovitis Score (0-10) [2, 6]: 7.42 ± 2.25
Fibroplasia (0-3) [2, 7]: 1.67 ± 0.26*t
Inflammatory Cells (0-3) [2, 7]: 1.25 ± 0.27
Pannus (0-2) [2, 7]: 0.50 ± 0.84
Synovial Structure (0-3) [2, 7]: 1.58 ± 0.38
Total Synovitis Score (0-10) [2, 7]: 5.00 ± 1.30*#t
Fibroplasia (0-3) [2, 8]: 1.33 ± 0.41*t
Inflammatory Cells (0-3) [2, 8]: 1.17 ± 0.26
Pannus (0-2) [2, 8]: 0.25 ± 0.42
Synovial Structure (0-3) [2, 8]: 1.42 ± 0.38
Total Synovitis Score (0-10) [2, 8]: 4.17 ± 1.21*#t
Overall synovitis score [2, 9]: significantly improved
Tidemark Integrity (0-1) [3, 6]: 0
Cartilage Cells (0-3) [3, 6]: 1.92 ± 0.21
Cartilage Structure (0-6) [3, 6]: 2.33 ± 0.68
Saffranin-O/Fast Green Staining (0-4) [3, 6]: 2.42 ± 0.67
Total Mankin Score (0-14) [3, 6]: 6.83 ± 1.25
Tidemark Integrity (0-1) [3, 7]: 0
Cartilage Cells (0-3) [3, 7]: 1.50 ± 0.32
Cartilage Structure (0-6) [3, 7]: 1.75 ± 0.42
Saffranin-O/Fast Green Staining (0-4) [3, 7]: 2.17 ± 0.26
Total Mankin Score (0-14) [3, 7]: 5.42 ± 0.74*t
Tidemark Integrity (0-1) [3, 8]: 0
Cartilage Cells (0-3) [3, 8]: 1.17 ± 0.26*t
Cartilage Structure (0-6) [3, 8]: 1.25 ± 0.27
Saffranin-O/Fast Green Staining (0-4) [3, 8]: 2.17 ± 0.26
Total Mankin Score (0-14) [3, 8]: 4.58 ± 0.74*t
Overall cartilage score [3, 9]: significantly improved
Inhibition of paw edema [4]: > 30%

B1: human estrogen receptor alpha ligand binding domain (ERalpha-LBD), carboxymethylated (receptor)
chain: SKKNSLALSLTADQMVSALLDAEPPILYSEYDPTRPFSEASMMGLLTNLADRELVHMINWAKRVPGFVDLTLHDQVHLLECAWLEILMIGLVWRSMEHPVKLLFAPNLLLDRNQGKCVEGMVEIFDMLLATSSRFRMMNLQGEEFVCLKSIILLNSGVYTFLSSTLKSLEEKDHIHRVLDKITDTLIHLMAKAGLTLQQQHQRLAQLLLILSHIRHMSNKGMEHLYSMKCKNVVPLYDLLLEMLDAHRLHAPTS
modifications: carboxymethylated with 5 mM iodoacetic acid while bound to the estradiol-affinity column; modified residues not stated
notes: also called human ERalpha-LBD; ERalpha-LBD (301-554)
binding result [5]: binds
